Data from patent publication US20230270815A1, “Apoptosis inducing peptide (SSTP1)” (Rajiv Gandhi Centre For Biotechnology, priority 2020, published 2023).
“Also recorded” adds a separate entry of the source. Residues, ends and D or L forms follow the SMILES beside them.

Columns and labels:
HSC-4 cells [1] = assay: MTT assay of SSTP1-induced growth inhibition with or without inhibitors; type: cell-based; conditions: 4 h, SSTP1 10 μM; LMT-28 60 μM, Anti-IL6Rα 10 μg/ml, SC144 40 μM
Excerpt: (§1) a. Inhibitors for IL6 (LMT-28), JAK (Ruxolitinib), gp130 (SC-144) and JNK (SP600125) as well as Anti-IL6Rα were used to check the dispensability of each of these molecules in inducing apoptosis by SSTP1. […] The SSTP1-mediated up-regulation of pJNK was not appreciably affected by either of these inhibitors, while pcJUN up-regulation was inhibited by only SP600125 (FIGS. 7a and b). […] LMT28 binds to the interface between IL6 and gp130 to block the activity of IL6. Since SSTP1 binds to a different site on the IL6/IL6Rα/gp130 complex, i.e., the interface of IL6 and IL6Rα, there is no competitive inhibition when we add LMT28. b.

[2] = test system: STAT, JNK and cJUN phosphorylation in HSC-4 cells; assay: Western blot of HSC-4 cells treated with SSTP1 and inhibitors; type: cell-based; conditions: HSC-4, SSTP1 10 μM, SC144 40 μM, Anti-IL6Rα 10 μg/ml, 30 minutes
Excerpt: as §1

HSC-4 cells [3] = test system: HSC-4 cells
Procedure: Evaluation of the cytotoxicity of SSTP1 and SSTP2 was performed using MTT assay in an oral cancer cell line, HSC-4 at various concentrations of the respective peptides.

human RBCs = assay: Hemolysis of human RBCs; conditions: 5 μM
Procedure: (§2) Further, the growth inhibitory property of SSTP1 on different cell lines with different levels of IL6Rα was investigated. Six cancer cell lines of different origin were evaluated for their IL6Rα expression in comparison to HSC-4 by western blot (FIGS. 8a and b). […] Since many of the bioactive peptides induce hemolysis, we evaluated the hemolysis induced by SSTP1 (FIG. 8d).

HSC-4 cells [4] = assay: Annexin/PI staining with FACS analysis; type: cell-based; conditions: HSC-4, 10 μM, 22 h
Procedure: To check whether the cytotoxic effect is due to apoptosis, Annexin/PI staining was performed, with the population with Annexin alone (early apoptotic), Annexin/PI dual stained (late apoptotic) and PI alone (dead cells) were quantified by FACS.

[5] = test system: Caspase 3, 7, 8, 9 and PARP in HSC-4 cells; assay: Western blot for caspase and PARP cleavage; type: cell-based; conditions: HSC-4, 10 μM
[6] = test system: JAK/STAT, JNK/AP1, MAPK and AKT phosphorylation in HSC-4 cells; assay: Western blot of JAK/STAT, JNK/AP1, MAPK and PI3K pathway phosphorylation; type: cell-based; conditions: HSC-4, 10 μM
Excerpt: a. […] The phosphorylated forms of STAT1 (Y701) and STAT3 (Y705) were probed for western blot to see the JAK/STAT pathway activation. Another phosphorylation of STAT3 at S727, which is reported to be independent of JAK activation, was also probed. […] All these biochemical analyses point out that SSTP1 preferentially down-regulates JAK-mediated-phosphorylation of STATs and MAPK, simultaneously up-regulating phosphorylation of JNK1 and cJUN. b.

AP1 = assay: Luciferase AP1 reporter assay; type: cell-based; conditions: in comparison to SSTP2
IL6Rα [7] = target: T1, IL6Rα (Homo sapiens, UniProt P08887); assay: Pull-down assay using biotin-labelled peptides; type: binding
T1 sequence (P08887 20-468): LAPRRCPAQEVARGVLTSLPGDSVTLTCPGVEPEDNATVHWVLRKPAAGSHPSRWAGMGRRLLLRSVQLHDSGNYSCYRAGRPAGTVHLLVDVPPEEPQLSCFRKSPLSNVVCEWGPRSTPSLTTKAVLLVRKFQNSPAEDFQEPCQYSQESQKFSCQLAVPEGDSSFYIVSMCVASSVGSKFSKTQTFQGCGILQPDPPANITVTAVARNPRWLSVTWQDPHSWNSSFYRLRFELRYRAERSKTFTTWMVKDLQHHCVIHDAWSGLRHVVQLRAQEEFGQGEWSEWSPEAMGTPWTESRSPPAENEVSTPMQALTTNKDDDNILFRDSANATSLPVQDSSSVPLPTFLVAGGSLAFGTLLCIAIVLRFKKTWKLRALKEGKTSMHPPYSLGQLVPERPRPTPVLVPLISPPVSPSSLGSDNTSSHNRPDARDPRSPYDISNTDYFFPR
Excerpt: To check whether SSTP1 activates the IL6/IL6R pathway by binding to IL6Rα, we checked the co-localization of SSTP1 and IL6Rα on cell membrane. […] To visualize the IL6R-dependent SSTP1 endosomal up-take, we used an early endosome marker, Rab5C. We observed the co-existence of SSTP1 and IL6Rα within early endosomes, marked by Rab5C (FIGS. 4c and d). […] The physical interaction of SSTP1 and IL6Rα was also ascertained using FRET analysis (FIG. 4f).
FIG. 4 illustrates SSTP1 interacts with IL6Rα and mediates the uptake of SSTP1 specifically FIG. 4(a) discusses HSC-4 cells were treated with Biotin labelled SSTP1 or SSTP2 (10 μM) for 30 minutes and then fixed and probed without permeabilization using mouse IL6Rα. 4(b) illustrates the co-localization of SSTP1 or SSTP2 to IL6Rα was analyzed for 11 cells and the Pearson's correlation was plotted. 4(c) illustrates cells were treated as in panel (a) and fixed and permeabilized to probe for IL6Rα, SSTP1 and Rab5c. The arrow mark indicates the co-localization. The scales bars represent 4 μm. 4(d) illustrates the Mander's overlap in SSTP1 foci were quantified for 10 cells. The average values for each cell is plotted. 4(e) illustrates the pull down assay using SSTP1-biotin and probed for IL6Rα. 4(f) illustrates the FRET analysis to show the SSTP1 binding to IL6Rα.

[8] = test system: six cancer cell lines of different origin; assay: MTT assay in six cancer cell lines with up-regulated IL6Rα; type: cell-based; conditions: 10 μM SSTP1, all six cell lines
Procedure: as §2

MDA-MB-231 cells = conditions: read-out: IC50 growth inhibition (MTT)
human leukocytes = assay: Trypan blue exclusion of leukocytes; conditions: 4.5 μM, 48 h
IL6Rα [9] = target: T1, IL6Rα; assay: Co-localization of peptide and IL6Rα on cell membrane (Pearson's coefficient); type: cell-based; design: fixed and probed without permeabilization using mouse IL6Rα; endogenous in cells; host or cells: HSC-4; conditions: HSC-4, 10 μM, 30 minutes
Excerpt: To check whether SSTP1 activates the IL6/IL6R pathway by binding to IL6Rα, we checked the co-localization of SSTP1 and IL6Rα on cell membrane. […] To visualize the IL6R-dependent SSTP1 endosomal up-take, we used an early endosome marker, Rab5C. We observed the co-existence of SSTP1 and IL6Rα within early endosomes, marked by Rab5C (FIGS. 4c and d). […] The physical interaction of SSTP1 and IL6Rα was also ascertained using FRET analysis (FIG. 4f). FIG. 4 illustrates SSTP1 interacts with IL6Rα and mediates the uptake of SSTP1 specifically FIG. 4(a) discusses HSC-4 cells were treated with Biotin labelled SSTP1 or SSTP2 (10 μM) for 30 minutes and then fixed and probed without permeabilization using mouse IL6Rα. 4(b) illustrates the co-localization of SSTP1 or SSTP2 to IL6Rα was analyzed for 11 cells and the Pearson's correlation was plotted. 4(c) illustrates cells were treated as in panel (a) and fixed and permeabilized to probe for IL6Rα, SSTP1 and Rab5c. The arrow mark indicates the co-localization. The scales bars represent 4 μm. 4(d) illustrates the Mander's overlap in SSTP1 foci were quantified for 10 cells. The average values for each cell is plotted. 4(e) illustrates the pull down assay using SSTP1-biotin and probed for IL6Rα. 4(f) illustrates the FRET analysis to show the SSTP1 binding to IL6Rα.

## O=C(NNc1nc2cc(F)ccc2n2cccc12)c1cnccn1 [SC144]
HSC-4 cells [1]
  effect on SSTP1-induced growth inhibition: significantly inhibited
[2]
  phosphorylation of STATs, JNK and cJUN: significantly reduced

## CC[C@H](C)[C@H](NC(=O)[C@H](CC(C)C)NC(=O)[C@H](CC(C)C)NC(=O)[C@@H]1CCCN1C(=O)[C@H](CC(C)C)NC(=O)[C@@H](N)Cc1ccccc1)C(=O)N[C@@H](CO)C(=O)N[C@@H](C)C(=O)N[C@@H](CC(C)C)C(=O)N[C@H](C(=O)N[C@@H](CO)C(=O)N[C@@H](CC(C)C)C(=O)N[C@@H](Cc1ccccc1)C(=O)N1CCC[C@H]1C(=O)N[C@@H](CCCCN)C(=O)N[C@@H](CC(C)C)C(=O)NCC(=O)N[C@@H](CCCCN)C(N)=O)[C@@H](C)O [SSTP1, FLPLLISALTSLFPKLGK] (H-FLPLLISALTSLFPKLGK-NH2)
HSC-4 cells [3]; read-out: IC50 growth inhibition (MTT), HSC-4 cells
  IC50: 10.2 µM
Human RBCs
  hemolysis: 0.25%
HSC-4 cells [4]
  increase in early apoptotic population: 3 fold
[5]
  Caspase 8 cleavage: unaffected
  cleavage of Caspase 3, 7 and 9: active cleavage
  time to PARP cleavage: ≤ 16 h
[6]
  STAT1 (Y701) phosphorylation: did not affect STAT1 (Y701) phosphorylation significantly
  STAT3 (Y705) phosphorylation: drastically reduced
  pJNK2 levels: up-regulated
  pSTAT3(S727): slight up-regulation
  pc-JUN level: increased level
  phosphorylation of JNK1: markedly up-regulated
AP1
  AP1 activity (luciferase reporter): activated
IL6Rα [7]
  physical interaction with IL6Rα (pull-down): stronger than that of SSTP2
[8]
  growth inhibitory potential compared to HSC-4: drastic increase in the growth inhibitory potential
MDA-MB-231 cells
  IC50: 4.5 µM
Human leukocytes
  viability of leukocytes: did not affect the viability; also recorded: no adverse effect; also recorded: Illustrates SSTP1 do not induce cell death in human leukocytes
IL6Rα [9]
  co-localization to IL6Rα on cell surface: several foci on the cell surface with co-localization

## CC[C@H](C)[C@H](NC(=O)[C@H](CCCNC(=N)N)NC(=O)[C@H](CCCNC(=N)N)NC(=O)[C@@H]1CCCN1C(=O)[C@H](CC(C)C)NC(=O)[C@@H](N)Cc1ccccc1)C(=O)N[C@@H](CO)C(=O)N[C@@H](C)C(=O)N[C@@H](CCCNC(=N)N)C(=O)N[C@H](C(=O)N[C@@H](CO)C(=O)N[C@@H](CC(C)C)C(=O)N[C@@H](Cc1ccccc1)C(=O)N1CCC[C@H]1C(=O)N[C@@H](CCCCN)C(=O)N[C@@H](CCCNC(=N)N)C(=O)NCC(=O)N[C@@H](CCCCN)C(N)=O)[C@@H](C)O [SSTP2, FLPRRISARTSLFPKRGK-NH2, reference compound] (H-FLPRRISARTSLFPKRGK-NH2)
HSC-4 cells [3]
  cytotoxicity (MTT), result in words: ineffective in inducing cytotoxicity
